Experimental data published in ChEMBL document CHEMBL1201862, “PubChem BioAssay data set” (2004).
The source made the active and inactive calls.

Assays:
[1] = system: Escherichia coli; assay: microbe, parasite or virus in culture
[2] = system: Escherichia coli; assay: microbe, parasite or virus in culture; remark: listed apart in the source
[3] = molecular target: T1, Mannose-6-phosphate isomerase (Homo sapiens, UniProt P34949); assay: MPI enzyme activity inhibition – biochemical, fluorescence intensity, coupled assay, primary screen (AID 1209)
T1 sequence (P34949 whole entry): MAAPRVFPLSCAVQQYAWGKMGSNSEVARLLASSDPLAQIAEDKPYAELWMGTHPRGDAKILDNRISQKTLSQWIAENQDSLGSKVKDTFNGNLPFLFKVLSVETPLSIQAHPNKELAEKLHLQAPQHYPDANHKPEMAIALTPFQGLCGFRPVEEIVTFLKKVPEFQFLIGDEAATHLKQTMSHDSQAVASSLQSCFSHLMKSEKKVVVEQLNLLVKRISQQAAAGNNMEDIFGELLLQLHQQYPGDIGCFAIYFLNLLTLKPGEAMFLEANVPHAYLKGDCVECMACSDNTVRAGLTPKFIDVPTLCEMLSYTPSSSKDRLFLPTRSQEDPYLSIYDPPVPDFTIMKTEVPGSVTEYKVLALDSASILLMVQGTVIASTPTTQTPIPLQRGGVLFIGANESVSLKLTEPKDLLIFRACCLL

[4] = molecular target: Induced myeloid leukemia cell differentiation protein Mcl-1 (Homo sapiens, UniProt Q07820); format: functional
Induced myeloid leukemia cell differentiation protein Mcl-1, sequence (Q07820 whole entry): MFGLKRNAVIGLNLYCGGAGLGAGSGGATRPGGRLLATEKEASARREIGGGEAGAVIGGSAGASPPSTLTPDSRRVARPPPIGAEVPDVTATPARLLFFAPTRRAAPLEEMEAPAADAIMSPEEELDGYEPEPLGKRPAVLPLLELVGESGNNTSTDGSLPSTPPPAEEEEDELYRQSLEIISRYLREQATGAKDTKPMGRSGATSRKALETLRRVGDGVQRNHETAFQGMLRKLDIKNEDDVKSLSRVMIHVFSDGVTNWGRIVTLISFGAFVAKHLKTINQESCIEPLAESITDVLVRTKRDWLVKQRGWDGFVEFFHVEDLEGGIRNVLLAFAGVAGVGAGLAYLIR

[5] = molecular target: T1, Mannose-6-phosphate isomerase; assay: phosphomannose isomerase inhibition – biochemical, fluorescence intensity, confirmation (AID 1535)
[6] = molecular target: DNA dC->dU-editing enzyme APOBEC-3A (Homo sapiens, UniProt P31941); assay: Dose Response confirmation of small molecule APOBEC3A DNA Deaminase Inhibitors via a fluorescence-based single-stranded DNA deaminase assay. [Related pubchem assays (depositor defined):AID493011, AID493024]; format: functional
DNA dC->dU-editing enzyme APOBEC-3A, sequence (P31941 whole entry): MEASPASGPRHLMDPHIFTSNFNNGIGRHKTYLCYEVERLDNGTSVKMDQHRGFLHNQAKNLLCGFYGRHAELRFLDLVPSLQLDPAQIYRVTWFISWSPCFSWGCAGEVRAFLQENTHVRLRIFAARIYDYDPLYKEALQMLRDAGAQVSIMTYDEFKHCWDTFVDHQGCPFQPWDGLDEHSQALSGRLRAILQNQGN

[7] = molecular target: T2, Phosphomannomutase 2 (Homo sapiens, UniProt O15305); assay: Counter screen SAR assay for PMM2 inhibitors via a fluorescence intensity assay. [Related pubchem assays (depositor defined):AID1545, AID1574]
T2 sequence (O15305 whole entry): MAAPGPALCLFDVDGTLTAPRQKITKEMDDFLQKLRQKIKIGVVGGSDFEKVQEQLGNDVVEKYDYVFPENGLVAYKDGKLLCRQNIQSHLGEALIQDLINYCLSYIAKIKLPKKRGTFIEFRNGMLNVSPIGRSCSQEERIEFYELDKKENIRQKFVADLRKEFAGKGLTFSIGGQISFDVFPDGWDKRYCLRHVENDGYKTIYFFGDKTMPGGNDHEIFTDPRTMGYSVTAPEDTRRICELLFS

[8] = molecular target: DNA dC->dU-editing enzyme APOBEC-3G (Homo sapiens, UniProt Q9HC16); format: functional;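 also: Dose-response counterscreen measuring inhibition of APOBEC3G DNA deaminase activity, run while confirming APOBEC3A inhibitors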
DNA dC->dU-editing enzyme APOBEC-3G, sequence (Q9HC16 whole entry): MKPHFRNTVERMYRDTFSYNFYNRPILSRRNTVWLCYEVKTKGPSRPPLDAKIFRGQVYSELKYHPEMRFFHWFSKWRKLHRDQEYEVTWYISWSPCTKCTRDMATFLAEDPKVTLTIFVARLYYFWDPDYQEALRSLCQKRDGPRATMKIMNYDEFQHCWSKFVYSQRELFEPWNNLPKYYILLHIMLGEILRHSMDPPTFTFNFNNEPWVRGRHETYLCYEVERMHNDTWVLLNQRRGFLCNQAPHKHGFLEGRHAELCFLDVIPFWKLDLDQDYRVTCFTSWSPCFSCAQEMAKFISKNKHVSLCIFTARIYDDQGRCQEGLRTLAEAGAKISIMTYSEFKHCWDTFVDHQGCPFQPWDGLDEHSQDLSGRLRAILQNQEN

[9] = molecular target: Genome polyprotein (dengue virus type 2, UniProt P29990); assay: flavivirus cap methylation enzyme inhibition – biochemical, confirmation dose response, primary screen (AID 588689); format: functional
Genome polyprotein, sequence (P29990 2492-3391 limits assumed): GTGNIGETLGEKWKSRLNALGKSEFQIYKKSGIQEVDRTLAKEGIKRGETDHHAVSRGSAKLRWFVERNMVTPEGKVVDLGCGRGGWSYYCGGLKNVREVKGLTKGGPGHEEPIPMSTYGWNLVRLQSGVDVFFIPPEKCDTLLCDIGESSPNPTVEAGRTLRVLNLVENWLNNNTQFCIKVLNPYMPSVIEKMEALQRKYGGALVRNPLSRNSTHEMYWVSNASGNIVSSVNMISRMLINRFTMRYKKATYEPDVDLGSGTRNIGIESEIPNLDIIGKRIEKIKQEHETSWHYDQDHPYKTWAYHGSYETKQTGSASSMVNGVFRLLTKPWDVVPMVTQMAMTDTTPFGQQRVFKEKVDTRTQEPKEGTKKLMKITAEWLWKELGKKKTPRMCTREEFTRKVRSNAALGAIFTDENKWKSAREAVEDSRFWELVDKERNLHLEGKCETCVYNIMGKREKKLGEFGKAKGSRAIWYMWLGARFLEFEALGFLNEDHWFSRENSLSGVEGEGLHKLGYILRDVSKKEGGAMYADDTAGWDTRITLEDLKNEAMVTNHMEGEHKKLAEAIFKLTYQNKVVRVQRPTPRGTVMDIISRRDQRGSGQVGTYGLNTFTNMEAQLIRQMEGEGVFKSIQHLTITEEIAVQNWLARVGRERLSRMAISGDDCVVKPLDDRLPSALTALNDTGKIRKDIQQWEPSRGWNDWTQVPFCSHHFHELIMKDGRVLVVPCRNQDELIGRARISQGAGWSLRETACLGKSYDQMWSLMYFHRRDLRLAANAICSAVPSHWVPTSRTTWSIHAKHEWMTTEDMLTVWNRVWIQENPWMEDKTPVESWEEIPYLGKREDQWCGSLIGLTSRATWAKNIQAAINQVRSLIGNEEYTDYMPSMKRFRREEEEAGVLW

[10] = molecular target: T3, Carboxy-terminal domain RNA polymerase II polypeptide A small phosphatase 1 (Homo sapiens, UniProt Q9GZU7); assay: CTDSP1 inhibitors, concentration-response, biochemical, absorbance readout, ultra-high-throughput screen actives (AID 540297); format: functional
T3 sequence (Q9GZU7 whole entry): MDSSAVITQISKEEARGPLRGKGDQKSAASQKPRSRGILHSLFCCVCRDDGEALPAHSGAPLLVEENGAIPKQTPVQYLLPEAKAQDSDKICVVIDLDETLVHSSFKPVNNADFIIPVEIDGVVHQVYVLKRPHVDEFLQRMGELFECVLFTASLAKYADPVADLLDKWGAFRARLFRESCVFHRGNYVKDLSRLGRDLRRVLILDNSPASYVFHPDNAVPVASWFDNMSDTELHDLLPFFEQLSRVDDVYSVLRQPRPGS

[11] = molecular target: T4, Rac GTPase-activating protein 1 (Homo sapiens, UniProt Q9H0H5); assay: blockers of MgcRacGAP-driven Rac1 GTP hydrolysis – biochemical, ADP Hunter fluorescence, primary and confirmatory, confirmation (AID 624330); format: functional
T4 sequence (Q9H0H5 whole entry): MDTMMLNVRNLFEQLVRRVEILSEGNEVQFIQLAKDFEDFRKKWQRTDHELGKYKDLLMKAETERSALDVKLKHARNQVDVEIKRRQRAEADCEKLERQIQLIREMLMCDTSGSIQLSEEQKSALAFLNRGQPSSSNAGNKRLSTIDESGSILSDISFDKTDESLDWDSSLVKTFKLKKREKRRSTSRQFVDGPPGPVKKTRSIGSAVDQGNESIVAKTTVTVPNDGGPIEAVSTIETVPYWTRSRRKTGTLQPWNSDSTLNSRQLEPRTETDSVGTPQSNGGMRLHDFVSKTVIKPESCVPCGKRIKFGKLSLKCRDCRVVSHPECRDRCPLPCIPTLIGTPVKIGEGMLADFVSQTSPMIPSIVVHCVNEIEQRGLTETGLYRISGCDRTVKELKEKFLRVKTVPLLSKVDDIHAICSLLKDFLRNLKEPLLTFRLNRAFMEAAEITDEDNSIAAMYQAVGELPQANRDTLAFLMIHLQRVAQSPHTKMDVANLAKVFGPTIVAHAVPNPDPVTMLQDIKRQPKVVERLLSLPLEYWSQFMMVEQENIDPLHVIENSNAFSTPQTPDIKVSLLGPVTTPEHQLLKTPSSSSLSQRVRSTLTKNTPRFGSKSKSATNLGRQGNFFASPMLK

[12] = molecular target: T5, Microphthalmia-associated transcription factor (Homo sapiens, UniProt O75030); assay: reducers of TRPM1 reporter luminescence, concentration series – cell-based, SK-MEL-5, cherry-picked, set 3, MITF inhibitor project, dose response (AID 493073); format: functional;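 also: SK-MEL-5 melanoma cells with luciferase driven by the MITF target TRPM1 promoter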
T5 sequence (O75030 whole entry): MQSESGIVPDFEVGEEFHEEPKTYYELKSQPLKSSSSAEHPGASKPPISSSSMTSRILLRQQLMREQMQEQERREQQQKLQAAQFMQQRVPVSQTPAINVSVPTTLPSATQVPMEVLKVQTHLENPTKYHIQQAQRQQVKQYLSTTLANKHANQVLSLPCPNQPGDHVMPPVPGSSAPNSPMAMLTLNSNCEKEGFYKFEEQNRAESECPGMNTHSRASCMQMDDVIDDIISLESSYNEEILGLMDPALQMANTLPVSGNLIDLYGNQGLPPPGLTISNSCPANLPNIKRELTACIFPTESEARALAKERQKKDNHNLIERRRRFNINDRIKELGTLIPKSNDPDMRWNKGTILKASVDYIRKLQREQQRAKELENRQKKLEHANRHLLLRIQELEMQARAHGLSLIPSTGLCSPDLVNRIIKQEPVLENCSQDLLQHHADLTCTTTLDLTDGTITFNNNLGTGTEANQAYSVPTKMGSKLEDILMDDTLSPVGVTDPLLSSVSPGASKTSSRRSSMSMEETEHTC

[13] = system: A-375; assay: MITF: Counter assay: A375 proliferation Measured in Cell-Based System Using Plate Reader - 2084-03_Inhibitor_Dose_DryPowder_Activity. [Related pubchem assays (depositor defined):AID488944]; format: functional; conditions: Homo sapiens
[14] = system: A-375; assay: proliferation inhibition in MITF-low A375 cells – cell-based, cherry-pick samples, set 2, counter-screen for MITF modulator project, dose response (AID 540335); format: functional; conditions: Homo sapiens

CCc1ccc2c(c1)cc(CN(Cc1ccco1)C(C)=O)c1nnnn12
AC50 [1]: 24.6 µM (active) | AC50 [2]: 98.8 µM (active)

O=C(O)CCn1cc(C=C2C(=O)NC(=S)NC2=O)c(-c2cccc(Br)c2)n1
IC50 [3]: 11.7 µM (active) | IC50 [4]: 2.39 µM (active) | IC50 [5]: 9.83 µM (active) | IC50 [6]: 15.8 µM (active) | IC50 [7]: > 100 µM (inactive) | IC50 [8]: 29.3 µM (active) | IC50 [9]: 6.04 µM (active) | IC50 [10]: 4.47 µM (active) | IC50 [11]: 89.9 µM (active)

O=C(Cn1ncc(Cl)c(Cl)c1=O)NC1CCCCC1
AC50 [12]: 6.82 µM (active) | AC50 [13]: > 35 µM (active) | AC50 [14]: > 35 µM (active)
